Measured values from ChEMBL document CHEMBL4261568, “Pyrimidine Nucleotides Containing a (S)-Methanocarba Ring as P2Y6 Receptor Agonists” (Medchemcomm, 2017).
Each block holds one compound with its values, some of them ahead of it. The source made the active and inactive calls. The calls are words filed in the database; no cut-off is given here.

Experiments:
P2Y purinoceptor 6 = P2Y purinoceptor 6 (Homo sapiens, UniProt Q15077); assay: Agonist activity at human P2Y6 receptor expressed in human 1321N1 cells assessed as induction of calcium mobilization by FLIPR method; assay type: functional, cell-based
[1] = Half life in human 1321N1 cell membranes; assay type: ADME, cell-based
[2] = target: T1, P2Y purinoceptor 14 (Homo sapiens) (UniProt Q15391); assay: Agonist activity at human P2Y14 receptor expressed in human 1321N1 cells assessed as induction of calcium mobilization at 10 uM measured over 2 mins by Fluo-4 dye-based FLIPR method relative to control; assay type: functional, cell-based
T1 sequence (whole entry): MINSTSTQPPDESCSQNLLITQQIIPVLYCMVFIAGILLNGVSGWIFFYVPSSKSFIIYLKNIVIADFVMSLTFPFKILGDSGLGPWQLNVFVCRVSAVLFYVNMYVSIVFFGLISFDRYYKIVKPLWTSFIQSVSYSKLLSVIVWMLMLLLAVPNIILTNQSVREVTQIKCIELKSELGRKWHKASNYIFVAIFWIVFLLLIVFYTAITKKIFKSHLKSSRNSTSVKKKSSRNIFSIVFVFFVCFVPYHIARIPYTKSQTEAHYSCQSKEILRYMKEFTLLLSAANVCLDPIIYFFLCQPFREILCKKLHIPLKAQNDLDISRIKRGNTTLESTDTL

[3] = target: P2Y purinoceptor 1 (Homo sapiens) (UniProt P47900); assay: Agonist activity at human P2Y1 receptor expressed in human 1321N1 cells assessed as induction of calcium mobilization at 10 uM measured over 2 mins by Fluo-4 dye-based FLIPR method relative to control; assay type: functional, cell-based
[4] = target: P2Y purinoceptor 2 (Homo sapiens) (UniProt P41231); assay: Agonist activity at human P2Y2 receptor expressed in human 1321N1 cells assessed as induction of calcium mobilization at 10 uM measured over 2 mins by Fluo-4 dye-based FLIPR method relative to control; assay type: functional, cell-based
[5] = target: P2Y purinoceptor 4 (Homo sapiens) (UniProt P51582); assay: Agonist activity at human P2Y4 receptor expressed in human 1321N1 cells assessed as induction of calcium mobilization at 10 uM measured over 2 mins by Fluo-4 dye-based FLIPR method relative to control; assay type: functional, cell-based
[6] = target: T2, P2Y purinoceptor 11 (Homo sapiens) (UniProt Q96G91); assay: Antagonist activity at human P2Y11 receptor expressed in human 1321N1 cells assessed as inhibition of calcium mobilization at 10 uM measured over 2 mins by Fluo-4 dye-based FLIPR method relative to control; assay type: functional, cell-based
T2 sequence (whole entry): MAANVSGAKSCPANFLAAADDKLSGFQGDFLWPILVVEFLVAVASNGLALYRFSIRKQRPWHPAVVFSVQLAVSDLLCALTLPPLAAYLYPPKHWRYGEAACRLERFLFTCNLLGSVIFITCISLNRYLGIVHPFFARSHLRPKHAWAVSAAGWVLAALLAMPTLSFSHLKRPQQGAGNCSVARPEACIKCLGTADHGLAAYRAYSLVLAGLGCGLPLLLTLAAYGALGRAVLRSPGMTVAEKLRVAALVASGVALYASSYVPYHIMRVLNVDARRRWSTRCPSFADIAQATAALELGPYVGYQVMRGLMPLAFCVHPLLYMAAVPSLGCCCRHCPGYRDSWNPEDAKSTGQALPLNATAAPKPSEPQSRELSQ

[7] = target: P2Y purinoceptor 1 (Homo sapiens) (UniProt P47900); assay: Antagonist activity at human P2Y1 receptor expressed in human 1321N1 cells assessed as inhibition of calcium mobilization at 10 uM measured over 2 mins by Fluo-4 dye-based FLIPR method relative to control; assay type: functional, cell-based
[8] = target: P2Y purinoceptor 2 (Homo sapiens) (UniProt P41231); assay: Antagonist activity at human P2Y2 receptor expressed in human 1321N1 cells assessed as inhibition of calcium mobilization at 10 uM measured over 2 mins by Fluo-4 dye-based FLIPR method relative to control; assay type: functional, cell-based
[9] = target: P2Y purinoceptor 4 (Homo sapiens) (UniProt P51582); assay: Antagonist activity at human P2Y4 receptor expressed in human 1321N1 cells assessed as inhibition of calcium mobilization at 10 uM measured over 2 mins by Fluo-4 dye-based FLIPR method relative to control; assay type: functional, cell-based

P2Y purinoceptor 2 (Homo sapiens), sequence (P41231 whole entry): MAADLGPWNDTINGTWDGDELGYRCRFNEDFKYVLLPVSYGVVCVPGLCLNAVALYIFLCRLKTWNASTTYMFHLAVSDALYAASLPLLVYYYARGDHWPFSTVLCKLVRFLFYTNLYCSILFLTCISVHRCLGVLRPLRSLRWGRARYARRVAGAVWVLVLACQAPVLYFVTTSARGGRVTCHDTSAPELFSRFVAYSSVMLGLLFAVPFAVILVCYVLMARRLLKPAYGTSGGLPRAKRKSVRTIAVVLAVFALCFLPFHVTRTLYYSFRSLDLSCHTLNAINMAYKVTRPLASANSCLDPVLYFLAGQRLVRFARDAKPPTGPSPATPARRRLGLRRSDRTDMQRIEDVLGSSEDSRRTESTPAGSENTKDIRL
P2Y purinoceptor 6, sequence (Q15077 whole entry): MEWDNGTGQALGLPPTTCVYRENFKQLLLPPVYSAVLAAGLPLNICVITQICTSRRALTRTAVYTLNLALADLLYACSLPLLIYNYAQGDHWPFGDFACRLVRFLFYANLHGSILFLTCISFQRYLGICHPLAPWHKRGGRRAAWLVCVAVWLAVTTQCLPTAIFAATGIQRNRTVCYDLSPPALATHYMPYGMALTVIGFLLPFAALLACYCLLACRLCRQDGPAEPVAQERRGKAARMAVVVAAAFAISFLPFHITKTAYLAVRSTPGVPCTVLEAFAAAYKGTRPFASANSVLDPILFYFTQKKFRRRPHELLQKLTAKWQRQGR
P2Y purinoceptor 4 (Homo sapiens), sequence (P51582 whole entry): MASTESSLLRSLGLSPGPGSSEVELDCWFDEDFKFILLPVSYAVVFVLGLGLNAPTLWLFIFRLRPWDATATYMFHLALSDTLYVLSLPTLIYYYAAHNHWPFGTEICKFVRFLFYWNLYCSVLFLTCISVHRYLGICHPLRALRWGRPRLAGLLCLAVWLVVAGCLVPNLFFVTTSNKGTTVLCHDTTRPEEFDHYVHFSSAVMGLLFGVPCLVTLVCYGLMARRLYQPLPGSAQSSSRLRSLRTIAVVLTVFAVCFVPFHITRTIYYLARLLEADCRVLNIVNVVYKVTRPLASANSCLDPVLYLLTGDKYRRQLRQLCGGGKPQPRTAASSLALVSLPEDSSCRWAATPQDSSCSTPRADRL
P2Y purinoceptor 1 (Homo sapiens), sequence (P47900 whole entry): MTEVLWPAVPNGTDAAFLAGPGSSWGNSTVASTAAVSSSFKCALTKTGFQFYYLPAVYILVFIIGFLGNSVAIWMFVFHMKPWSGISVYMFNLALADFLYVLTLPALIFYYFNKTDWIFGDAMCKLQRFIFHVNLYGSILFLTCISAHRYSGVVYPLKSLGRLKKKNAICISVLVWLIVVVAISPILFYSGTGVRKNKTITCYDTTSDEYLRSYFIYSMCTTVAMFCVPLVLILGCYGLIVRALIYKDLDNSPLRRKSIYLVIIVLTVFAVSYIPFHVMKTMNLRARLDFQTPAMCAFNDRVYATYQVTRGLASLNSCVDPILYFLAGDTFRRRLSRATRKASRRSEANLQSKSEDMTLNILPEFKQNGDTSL

SMILES: CCN(CC)CC.CCN(CC)CC.CO/N=c1/ccn([C@@H]2O[C@H](COP(=O)(O)OP(=O)(O)OP(=O)(O)OC[C@H]3O[C@@H](n4ccc(=O)[nH]c4=O)[C@H](O)[C@@H]3O)[C@@H](O)[C@H]2O)c(=O)[nH]1
EC50 (P2Y purinoceptor 6): 1.2 µM
half-life [1]: 23 min

SMILES: CO/N=c1/ccn([C@]23C[C@H]2[C@H](COP(=O)(O)OP(=O)(O)OP(=O)(O)OC[C@@H]2[C@@H](O)[C@@H](O)[C@@]4(n5ccc(=O)[nH]c5=O)C[C@@H]24)[C@@H](O)[C@H]3O)c(=O)[nH]1
EC50 (P2Y purinoceptor 6): 6.9 µM

SMILES: CO/N=c1/ccn([C@]23C[C@H]2[C@H](COP(=O)(O)OP(=O)(O)OP(=O)(O)OC[C@@]24C[C@@H]2[C@@H](n2ccc(=O)[nH]c2=O)[C@H](O)[C@@H]4O)[C@@H](O)[C@H]3O)c(=O)[nH]1
EC50 (P2Y purinoceptor 6): 0.705 µM

SMILES: O=c1[nH]/c(=N\OCc2ccccc2)ccn1[C@@H]1O[C@H](COP(=O)(O)CP(=O)(O)O)[C@@H](O)[C@H]1O
EC50 (P2Y purinoceptor 6): 2.36 µM

SMILES: CO/N=c1/ccn([C@@H]2O[C@H](COP(=O)(O)CP(=O)(O)O)[C@@H](O)[C@H]2O)c(=O)[nH]1
EC50 (P2Y purinoceptor 6): 0.42 µM

SMILES: CO/N=c1/ccn([C@]23C[C@H]2[C@H](COP(=O)(O)OP(=O)(O)OP(=O)(O)OC[C@@H]2[C@@H](O)[C@@H](O)[C@@]4(n5cc/c(=N/OC)[nH]c5=O)C[C@@H]24)[C@@H](O)[C@H]3O)c(=O)[nH]1
EC50 (P2Y purinoceptor 6): 5.49 µM

SMILES: O=c1ccn([C@]23C[C@H]2[C@H](COP(=O)(O)CP(=O)(O)O)[C@@H](O)[C@H]3O)c(=O)[nH]1
EC50 (P2Y purinoceptor 6): 47.1 µM

SMILES: O=c1[nH]c(=O)n([C@@H]2O[C@H](COP(=O)(O)OP(=O)(O)O)[C@@H](O)[C@H]2O)cc1I
EC50 (P2Y purinoceptor 6): 0.0491 µM

SMILES: CO/N=c1/ccn([C@@H]2O[C@H](COP(=O)(O)OP(=O)(O)O)[C@@H](O)[C@H]2O)c(=O)[nH]1
half-life [1]: 55 min

SMILES: O=c1[nH]c(=O)n([C@]23C[C@H]2[C@H](COP(=O)(O)OP(=O)(O)O)[C@@H](O)[C@H]3O)cc1I
EC50 (P2Y purinoceptor 6): 0.44 µM

SMILES: O=c1ccn([C@@H]2O[C@H](COP(=O)(O)OP(=O)(O)O)[C@@H](O)[C@H]2O)c(=O)[nH]1
EC50 (P2Y purinoceptor 6): 0.132 µM

SMILES: CO/N=c1/ccn([C@]23C[C@H]2[C@H](COP(=O)(O)OP(=O)(O)OP(=O)(O)OC[C@H]2O[C@@H](n4ccc(=O)[nH]c4=O)[C@H](O)[C@@H]2O)[C@@H](O)[C@H]3O)c(=O)[nH]1
EC50 (P2Y purinoceptor 6): 4.12 µM
%max [3]: -0.6%
%max [4]: 16%
%max [5]: 10.2%
Imax [6]: 0.1%
Imax [7]: 56.8%
Imax [8]: 40.3%
Imax [9]: 25%

More lines, now with the values ahead:

EC50 (P2Y purinoceptor 6): 0.438 µM
Activity [2]: inactive
SMILES: O=c1ccn([C@]23C[C@H]2[C@H](COP(=O)(O)OP(=O)(O)O)[C@@H](O)[C@H]3O)c(=O)[nH]1

EC50 (P2Y purinoceptor 6): 6.29 µM
SMILES: CO/N=c1/ccn([C@]23C[C@H]2[C@H](COP(=O)(O)CP(=O)(O)O)[C@@H](O)[C@H]3O)c(=O)[nH]1

EC50 (P2Y purinoceptor 6): 0.493 µM
%max [3]: -0.5%
%max [4]: 8.9%
%max [5]: 2.2%
Imax [6]: -3.9%
Imax [7]: 17%
Imax [8]: 16.8%
Imax [9]: 10%
SMILES: CO/N=c1/ccn([C@]23C[C@H]2[C@H](COP(=O)(O)OP(=O)(O)O)[C@@H](O)[C@H]3O)c(=O)[nH]1

EC50 (P2Y purinoceptor 6): 4.96 µM
SMILES: O=c1[nH]/c(=N\OCc2ccccc2)ccn1[C@]12C[C@H]1[C@H](COP(=O)(O)CP(=O)(O)O)[C@@H](O)[C@H]2O

EC50 (P2Y purinoceptor 6): 0.793 µM
SMILES: O=c1[nH]/c(=N\OCc2ccccc2)ccn1[C@]12C[C@H]1[C@H](COP(=O)(O)OP(=O)(O)O)[C@@H](O)[C@H]2O
